Laboratory results published in patent US9249128B2 (priority 2010, dated 2016).
Like-named read-outs stand apart in the source and are kept apart here.

Molecular target: T1, KIAA1363 (Mus musculus, UniProt Q8BLF1)
T1 construct: ABPP analysis of KIAA1363 activity in mouse brain membrane proteome; from tissue; host or cells: mouse brain (membrane fraction)
T1 sequence (Q8BLF1 1-408): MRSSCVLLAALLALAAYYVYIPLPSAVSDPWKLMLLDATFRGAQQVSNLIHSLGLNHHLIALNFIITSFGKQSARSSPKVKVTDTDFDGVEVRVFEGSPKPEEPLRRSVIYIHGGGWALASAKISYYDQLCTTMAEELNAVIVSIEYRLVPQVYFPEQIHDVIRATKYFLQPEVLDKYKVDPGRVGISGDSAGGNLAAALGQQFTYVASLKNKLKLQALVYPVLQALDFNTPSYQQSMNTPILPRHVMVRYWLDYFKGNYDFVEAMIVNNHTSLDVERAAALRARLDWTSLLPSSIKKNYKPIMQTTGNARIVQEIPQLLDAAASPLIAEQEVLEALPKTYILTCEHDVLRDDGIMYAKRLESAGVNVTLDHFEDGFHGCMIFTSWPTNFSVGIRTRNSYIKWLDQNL
Test: Gel-based competitive ABPP of KIAA1363 in mouse brain membrane proteome (FP-rhodamine)
Assay type: biochemical
Experimental: In various embodiments, the invention provides a method of inhibiting a serine hydrolase, comprising contacting the hydrolase with a compound of formula (I), e.g., a compound selected from set of compounds shown in Table 1, below. […] IC50 values were derived from ABPP analysis of KIAA1363 activity in mouse brain membrane proteome and are averages of three replicates. Inhibitors were added to the proteome for 30 min before addition of FP-rhodamine (1 μM, 30 min).
Tissues were Dounce-homogenized in PBS, pH 7.4, followed by a low-speed spin (1,400 g, 5 min) to remove debris. The supernatant was then subjected to centrifugation (100,000×g, 45 min) to provide the cytosolic fraction in the supernatant and the unsoluble fraction as a pellet. The pellet was washed and resuspended in PBS buffer by sonication. Total protein concentration in each fraction was determined using a protein assay kit (Bio-Rad). Samples were stored at −80° C. until use.
For ABPP experiments, cell lysate and tissue proteomes were treated with 1 μM FP-rhodamine for 30 min at room temperature (50 μL total reaction volume) as described previously (Nomura et al., 2010). Reactions were quenched with one volume of standard 4×SDS/PAGE loading buffer (reducing), separated by SDS/PAGE (10% acrylamide), and visualized in-gel with a Hitachi FMBio IIe flatbed fluorescence scanner (MiraiBio). Inhibitors were preincubated prior (30 min or 4 h at 37° C. in vitro or in situ, respectively) to the addition of FP-rhodamine.

[1] = mouse brain membrane proteome, inhibitor 30 min before FP-rhodamine (1 μM, 30 min), averages of three replicates, read-out: IC50 (KIAA1363)
[2] = screened against KIAA1363, Table 1, read-out: IC50 values of less than 1 micromolar

SMILES: Cc1ccc2ccccc2c1OC(=O)NCc1ccc(OC(F)(F)F)cc1 [JW390, 2-methylnaphthalen-1-yl 4-(trifluoromethoxy)benzylcarbamate]
- IC50 [1]: > 10000 nM

SMILES: CCOc1ccccc1OC(=O)NCCc1cccc(OC)c1 [JW442, 2-ethoxyphenyl 3-methoxyphenethylcarbamate]
- IC50 [1]: 1010 nM

SMILES: COc1cccc(OC(=O)NCCc2ccc(F)cc2)c1OC [JW477, 2,3-dimethoxyphenyl 4-fluorophenethylcarbamate]
- IC50 [1]: > 10000 nM

SMILES: O=C(NCCCc1ccccc1)Oc1ccc(-n2cccc2)cc1 [JW393, 4-(1H-pyrrol-1-yl)phenyl (3-phenylpropyl)carbamate]
- IC50 [1]: > 50000 nM

SMILES: O=C(NCCc1ccc2ccccc2c1)Oc1ccc(-n2cccc2)cc1 [JW435, 4-(1H-pyrrol-1-yl)phenyl (2-(naphthalen-2-yl)ethyl)carbamate]
- IC50 [1]: > 50000 nM

SMILES: Cc1ccc2ccccc2c1OC(=O)NCCC(c1ccccc1)c1ccccc1 [JW438, 2-methylnaphthalen-1-yl (3,3-diphenylpropyl)carbamate]
- IC50 [1]: > 50000 nM

SMILES: O=C(NCCc1ccc2c(c1)OCO2)Oc1ccc(-n2cccc2)cc1 [JW414, 4-(1H-pyrrol-1-yl)phenyl (2-(benzo[d][1,3]dioxol-5-yl)ethyl)carbamate]
- IC50 [1]: > 10000 nM

SMILES: O=C(NCC(c1ccccc1)c1ccccc1)Oc1ccc(-n2cccc2)cc1 [JW434, 4-(1H-pyrrol-1-yl)phenyl (2,2-diphenylethyl)carbamate]
- IC50 [1]: > 50000 nM

SMILES: CCCCc1ccc(CNC(=O)Oc2c(C)ccc3ccccc23)cc1 [JW406, 2-methylnaphthalen-1-yl 4-butylbenzylcarbamate]
- IC50 [1]: > 50000 nM

SMILES: CCOc1ccccc1OC(=O)NCCc1ccc(Br)cc1 [JW418, 2-ethoxyphenyl 4-bromophenethylcarbamate]
- IC50 [1]: 329 nM
- IC50 [2]: < 1000 nM

SMILES: CCOc1ccccc1OC(=O)NCC(c1ccccc1)c1ccccc1 [JW444, 2-ethoxyphenyl (2,2-diphenylethyl)carbamate]
- IC50 [1]: 1050 nM

SMILES: CC(C)c1ccccc1OC(=O)NCCc1ccc(C(F)(F)F)cc1 [JW482, 2-isopropylphenyl 4-(trifluoromethyl)phenethylcarbamate]
- IC50 [1]: 9.4 nM
- IC50 (screened against KIAA1363, Table 1, read-out: IC50 values of around 10 nanomolar (most potent)): ~10 nM

SMILES: CCOc1ccccc1OC(=O)NCCc1ccc(Cl)c(Cl)c1 [JW423, 2-ethoxyphenyl 3,4-dichlorophenethylcarbamate]
- IC50 [1]: 498 nM
- IC50 [2]: < 1000 nM

SMILES: Cc1ccc2ccccc2c1OC(=O)NCCN1CCOCC1 [JW427, 2-methylnaphthalen-1-yl (2-morpholinoethyl)carbamate]
- IC50: > 50000 nM

SMILES: CCOc1ccccc1OC(=O)NCCc1ccc(C(F)(F)F)cc1 [JW448, 2-ethoxyphenyl 4-(trifluoromethyl)phenethylcarbamate]
- IC50 [1]: 293 nM
- IC50 [2]: < 1000 nM

SMILES: Cc1ccc2ccccc2c1OC(=O)NCCc1cc2ccccc2[nH]1 [JW428, 2-methylnaphthalen-1-yl (2-(1H-indol-2-yl)ethyl)carbamate]
- IC50 [1]: 3940 nM

SMILES: CN(C)c1cccc(OC(=O)NCCc2ccc(F)cc2)c1 [JW469, 3-(dimethylamino)phenyl 4-fluorophenethylcarbamate]
- IC50 [1]: 5160 nM

SMILES: O=C(NCCc1cc2ccccc2[nH]1)Oc1ccc(-n2cccc2)cc1 [JW426, 4-(1H-pyrrol-1-yl)phenyl (2-(1H-indol-2-yl)ethyl)carbamate]
- IC50 [1]: > 50000 nM

SMILES: O=C(NCCc1ccc(Cl)c(Cl)c1)Oc1ccc(-n2cccc2)cc1 [JW421, 4-(1H-pyrrol-1-yl)phenyl 3,4-dichlorophenethylcarbamate]
- IC50 [1]: > 10000 nM

SMILES: O=C(NCCN1CCOCC1)Oc1ccc(-n2cccc2)cc1 [JW425, 4-(1H-pyrrol-1-yl)phenyl (2-morpholinoethyl)carbamate]
- IC50: > 50000 nM

SMILES: O=C(NCCc1cccs1)Oc1ccc(-n2cccc2)cc1 [JW413, 4-(1H-pyrrol-1-yl)phenyl (2-(thiophen-2-yl)ethyl)carbamate]
- IC50 [1]: 618 nM
- IC50 [2]: < 1000 nM

SMILES: Cc1ccc2ccccc2c1OC(=O)NCCc1ccc(C(F)(F)F)cc1 [JW447, 2-methylnaphthalen-1-yl 4-(trifluoromethyl)phenethylcarbamate]
- IC50 [1]: 858 nM

SMILES: O=C(NCc1ccc(OC(F)(F)F)cc1)Oc1ccc(-n2cccc2)cc1 [JW389, 4-(1H-pyrrol-1-yl)phenyl 4-(trifluoromethoxy)benzylcarbamate]
- IC50 [1]: 263 nM
- IC50 [2]: < 1000 nM

SMILES: Cc1ccc2ccccc2c1OC(=O)NCCc1cccs1 [JW416, 2-methylnaphthalen-1-yl (2-(thiophen-2-yl)ethyl)carbamate]
- IC50 [1]: 3310 nM

SMILES: O=C(NCCc1ccc(F)cc1)Oc1ccc(C2CCCCC2)cc1 [JW472, 4-cyclohexylphenyl 4-fluorophenethylcarbamate]
- IC50 [1]: 119 nM
- IC50 [2]: < 1000 nM

SMILES: CCOc1ccccc1OC(=O)NCc1ccc(Cl)cc1 [JW398, 2-ethoxyphenyl 4-chlorobenzylcarbamate]
- IC50 [1]: 977 nM
- IC50 [2]: < 1000 nM

SMILES: Cc1ccc2ccccc2c1OC(=O)NCCc1ccc2c(c1)OCO2 [JW417, 2-methylnaphthalen-1-yl (2-(benzo[d][1,3]dioxol-5-yl)ethyl)carbamate]
- IC50 [1]: 142 nM
- IC50 [2]: < 1000 nM

SMILES: Cc1ccc2ccccc2c1OC(=O)NCc1ccc(-c2ccccc2)cc1
- IC50 [1]: > 50000 nM

SMILES: Cc1ccc2ccccc2c1OC(=O)NCc1ccc(Cl)cc1 [JW395, 2-methylnaphthalen-1-yl 4-chlorobenzylcarbamate]
- IC50 [1]: > 50000 nM

SMILES: CCOc1ccccc1OC(=O)NCCCc1ccccc1
- IC50 [1]: 1790 nM

SMILES: COc1cccc(CCNC(=O)Oc2c(C)ccc3ccccc23)c1 [JW437, 2-methylnaphthalen-1-yl 3-methoxyphenethylcarbamate]
- IC50 [1]: 209 nM
- IC50 [2]: < 1000 nM

SMILES: Cc1ccc2ccccc2c1OC(=O)NCCCc1ccccc1 [JW396, 2-methylnaphthalen-1-yl (3-phenylpropyl)carbamate]
- IC50 [1]: > 10000 nM

SMILES: Cc1ccc(C(C)C)c(OC(=O)NCCc2ccc(F)cc2)c1 [JW466, 2-isopropyl-5-methylphenyl 4-fluorophenethylcarbamate]
- IC50 [1]: 197 nM
- IC50 [2]: < 1000 nM

SMILES: Cc1ccc2ccccc2c1OC(=O)NCc1ccc(C(F)(F)F)cc1 [JW385, 2-methylnaphthalen-1-yl 4-(trifluoromethyl)benzylcarbamate]
- IC50 [1]: > 50000 nM

SMILES: CCOc1ccccc1OC(=O)NCc1ccc(OC(F)(F)F)cc1 [JW391, 2-ethoxyphenyl 4-(trifluoromethoxy)benzylcarbamate]
- IC50 [1]: 1050 nM

SMILES: COc1ccc(CNC(=O)Oc2ccc(-n3cccc3)cc2)cc1 [JW384, 4-(1H-pyrrol-1-yl)phenyl 4-methoxybenzylcarbamate]
- IC50 [1]: 668 nM
- IC50 [2]: < 1000 nM

SMILES: C=CCc1ccccc1OC(=O)NCCc1ccc(F)cc1 [JW468, 2-allylphenyl 4-fluorophenethylcarbamate]
- IC50 [1]: 94.3 nM

SMILES: O=C(NCCc1ccc(F)cc1)Oc1ccc(-n2cccc2)cc1 [JW382, 4-(1H-pyrrol-1-yl)phenyl 4-fluorophenethylcarbamate]
- IC50 [1]: 1200 nM

SMILES: Cc1ccc2ccccc2c1OC(=O)NCCc1ccc(Cl)c(Cl)c1 [JW422, 2-methylnaphthalen-1-yl 3,4-dichlorophenethylcarbamate]
- IC50 [1]: 665 nM
- IC50 [2]: < 1000 nM

SMILES: CCOc1ccccc1OC(=O)NCCc1ccc2ccccc2c1
- IC50 [1]: 890 nM
- IC50 [2]: < 1000 nM

SMILES: CCCCc1ccc(CNC(=O)Oc2ccccc2OCC)cc1 [JW409, 2-ethoxyphenyl 4-butylbenzylcarbamate]
- IC50 [1]: > 50000 nM

SMILES: COc1cccc(CCNC(=O)Oc2ccc(-n3cccc3)cc2)c1 [JW432, 4-(1H-pyrrol-1-yl)phenyl 3-methoxyphenethylcarbamate]
- IC50 [1]: > 10000 nM
